The compounds below were run against T1, IRAK4 (Homo sapiens, UniProt Q9NWZ3) (assay: IRAK4 MSD Degradation in OCI-LY10). Details: OCI-LY10 cells, Meso Scale Discovery, incubated 4 to 24 hours.
T1 construct: endogenous in cells; host or cells: OCI-LY10
T1 sequence (Q9NWZ3 1-460): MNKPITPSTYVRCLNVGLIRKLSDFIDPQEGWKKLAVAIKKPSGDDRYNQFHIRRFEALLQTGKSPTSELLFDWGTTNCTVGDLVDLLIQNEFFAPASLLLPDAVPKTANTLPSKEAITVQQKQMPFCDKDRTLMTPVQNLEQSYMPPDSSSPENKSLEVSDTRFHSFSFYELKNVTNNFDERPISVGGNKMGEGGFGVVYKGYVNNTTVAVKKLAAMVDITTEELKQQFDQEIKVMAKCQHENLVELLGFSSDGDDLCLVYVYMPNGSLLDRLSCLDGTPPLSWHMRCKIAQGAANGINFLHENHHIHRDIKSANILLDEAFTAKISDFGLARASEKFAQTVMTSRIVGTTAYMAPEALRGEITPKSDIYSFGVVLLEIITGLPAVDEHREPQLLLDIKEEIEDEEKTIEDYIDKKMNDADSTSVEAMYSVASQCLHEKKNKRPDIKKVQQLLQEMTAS
Type: cell-based
How it was run: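 IRAK4 degradation was quantified by Meso Scale electrochemiluminescence (anti-IRAK4 capture and detection antibodies) in lysates of treated OCI-LY10 cells. Compounds were dosed at 8 concentrations (1:3 dilutions, top 1 to 10 μM) for 4 to 24 h; DC50 derived by three-parameter logistic fitting.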

DC50	SMILES
< 10 nM	CC(=O)c1cc2nn([C@H]3CC[C@H](CN4CCN(c5cccc6c5n(C)c(=O)n6C5CCC(=O)NC5=O)CC4)CC3)cc2cc1NC(=O)c1cccc(C(F)(F)F)n1 (some centres unmarked) [I-412]
< 10 nM	COc1cc2nn([C@H]3CC[C@H](CN4CCN(c5cc(F)cc6c(N7CCC(=O)NC7=O)cncc56)CC4)CC3)cc2cc1NC(=O)c1cccc(C(F)(F)F)n1 [I-413]
10 to 50 nM	Cc1cc2nn([C@H]3CC[C@H](CN4CC5CC(C4)N5c4cccc5c4n(C)c(=O)n5C4CCC(=O)NC4=O)CC3)cc2cc1NC(=O)c1cccc(C(F)(F)F)n1 (some centres unmarked) [I-414]
10 to 50 nM	Cn1c(=O)n(C2CCC(=O)NC2=O)c2cccc(N3CCN(C[C@H]4CC[C@H](n5cc6cc(NC(=O)c7cccc(C(F)(F)F)n7)c(C(=O)O)cc6n5)CC4)CC3)c21 (some centres unmarked) [I-415, 2-[4-[[4-[1-(2,6-dioxo-3-piperidyl)-3-methyl-2-oxo-benzimidazol-4-yl]piperazin-1-yl]methyl]cyclohexyl]-5-[[6-(trifluoromethyl)pyridine-2-carbonyl]amino]indazole-6-carboxylic acid]
< 10 nM	CC(C)Nc1c(C(=O)N[C@H]2CC[C@H](CN3CCN(c4cccc5c4n(C)c(=O)n5C4CCC(=O)NC4=O)CC3)CC2)cnc2sc(-c3cncs3)cc12 (some centres unmarked) [I-416]
< 10 nM	CC(C)Nc1c(C(=O)N[C@H]2CC[C@H](CN3CCC(c4cccc5c4n(C)c(=O)n5C4CCC(=O)NC4=O)CC3)CC2)cnc2sc(-c3cncs3)cc12 (some centres unmarked) [I-417]
10 to 50 nM	CC(C)Nc1c(C(=O)N[C@H]2CC[C@H](CN3CCN(c4cccc5c(N6CCC(=O)NC6=O)cncc45)CC3)CC2)cnc2sc(-c3cncs3)cc12 [I-418]
50 to 100 nM	COc1ccc2c(c1C1CCN(C[C@H]3C[C@H](n4cc5cc(NC(=O)c6cccc(C(F)(F)F)n6)ncc5n4)C3)CC1)n(C)c(=O)n2C1CCC(=O)NC1=O (some centres unmarked) [I-421]
< 10 nM	Cn1c(=O)n(C2CCC(=O)NC2=O)c2cccc(N3CCN(C[C@H]4CC[C@H](n5cc6cc(NC(=O)c7cccc(C(F)(F)F)n7)c(S(C)(=O)=O)cc6n5)CC4)CC3)c21 (some centres unmarked) [I-422]
< 10 nM	Cn1c(=O)n(C2CCC(=O)NC2=O)c2cccc(N3C[C@@H]4C[C@H]3CN4C[C@H]3CC[C@H](n4cc5cc(NC(=O)c6cccc(C(F)(F)F)n6)ccc5n4)CC3)c21 (some centres unmarked) [I-423]
< 10 nM	COc1cc2nn([C@H]3CC[C@H](CN4CCC(c5cccc6c5n(C)c(=O)n6C5CCC(=O)NC5=O)CC4(C)C)CC3)cc2cc1NC(=O)c1cccc(C(F)(F)F)n1 (some centres unmarked) [I-424]
< 10 nM	COc1cc2nn([C@H]3CC[C@H](CN4CCN(c5cccc6c5n(C5CC5)c(=O)n6C5CCC(=O)NC5=O)CC4)CC3)cc2cc1NC(=O)c1cccc(C(F)(F)F)n1 (some centres unmarked) [I-426]
10 to 50 nM	COc1cc2nc(N3CCC(CN4CCN(c5cccc6c5n(C)c(=O)n6C5CCC(=O)NC5=O)CC4)CC3)sc2cc1NC(=O)c1cccc(C(F)(F)F)n1 (centres unmarked) [I-427]
< 10 nM	COc1cc2nn([C@H]3CC[C@H](CN4CC[C@@H](c5cccc6c5n(C)c(=O)n6C5CCC(=O)NC5=O)C4)CC3)cc2cc1NC(=O)c1cccc(C(F)(F)F)n1 (some centres unmarked) [I-428]
100 to 200 nM	CC(C)(O)c1cc2nc([C@H]3CC[C@H](C(=O)N4CCC5(CC4)CC(CCNc4cccc6c4C(=O)N(C4CCC(=O)NC4=O)C6=O)C5)CC3)sc2cc1NC(=O)c1cccc(C#N)n1 (some centres unmarked) [I-430]
> 200 nM	CC(C)(O)c1cc2nc([C@H]3CC[C@H](C(=O)N4CCN(CCNc5cccc6c5C(=O)N(C5CCC(=O)NC5=O)C6=O)CC4)CC3)sc2cc1NC(=O)c1cncc(C#N)c1 (some centres unmarked) [I-431]
100 to 200 nM	Cc1cccc(C(=O)Nc2cc3sc([C@H]4CC[C@H](CN5C[C@H]6C[C@@H]5CN6CCCNc5cccc6c5C(=O)N(C5CCC(=O)NC5=O)C6=O)CC4)nc3cc2C(C)(C)O)n1 (some centres unmarked) [I-432]
10 to 50 nM	COc1cc2nc([C@H]3CC[C@H](CN(C)CCCCNc4cccc5c4C(=O)N(C4CCC(=O)NC4=O)C5=O)CC3)sc2cc1NC(=O)c1cccc(C#N)n1 (some centres unmarked) [I-433]

DC50	SMILES
50 to 100 nM	CC(C)(O)c1cc2nc([C@H]3CC[C@H](C(=O)N4CCN(CCNc5cccc6c5C(=O)N(C5CCC(=O)NC5=O)C6=O)CC4)CC3)sc2cc1NC(=O)c1cccc(C#N)n1 (some centres unmarked) [I-434]
10 to 50 nM	CC(C)(O)c1cc2nc([C@H]3CC[C@H](C(=O)N4CCN(CCCNc5cccc6c5C(=O)N(C5CCC(=O)NC5=O)C6=O)CC4)CC3)sc2cc1NC(=O)c1cccc(C#N)n1 (some centres unmarked) [I-435]
50 to 100 nM	CC(C)(O)c1cc2nc([C@H]3CC[C@H](C(=O)N4CC5(CC(CCNc6cccc7c6C(=O)N(C6CCC(=O)NC6=O)C7=O)C5)C4)CC3)sc2cc1NC(=O)c1cccc(C#N)n1 (some centres unmarked) [I-436]
10 to 50 nM	COc1cc2nc([C@H]3CC[C@H](CN(C)CCCCNc4cccc5c4C(=O)N(C4CCC(=O)NC4=O)C5=O)CC3)sc2cc1NC(=O)c1cccc(C)n1 (some centres unmarked) [I-437]
10 to 50 nM	CC(C)(O)c1cc2nc([C@H]3CC[C@H](CN4CCO[C@@H](CCCNc5cccc6c5C(=O)N(C5CCC(=O)NC5=O)C6=O)C4)CC3)sc2cc1NC(=O)c1cccc(C#N)n1 (some centres unmarked) [I-438]
10 to 50 nM	Cc1cccc(C(=O)Nc2cc3sc([C@H]4CC[C@H](CN5C[C@@H]6C[C@H]5CN6CCCNc5cccc6c5C(=O)N(C5CCC(=O)NC5=O)C6=O)CC4)nc3cc2C(C)(C)O)n1 (some centres unmarked) [I-439]
10 to 50 nM	CC(C)(O)c1cc2nc([C@H]3CC[C@H](CN4CCN(CCCNc5cccc6c5C(=O)N(C5CCC(=O)NC5=O)C6=O)CC4)CC3)sc2cc1NC(=O)c1cccc(C#N)n1 (some centres unmarked) [I-440]
10 to 50 nM	CC(C)(O)c1cc2nc([C@H]3CC[C@H](CN4CCN(CCNc5cccc6c5C(=O)N(C5CCC(=O)NC5=O)C6=O)CC4)CC3)sc2cc1NC(=O)c1cccc(C#N)n1 (some centres unmarked) [I-441]
50 to 100 nM	CC(C)(O)c1cc2nc([C@H]3CC[C@H](CN4CCO[C@H](CCCNc5cccc6c5C(=O)N(C5CCC(=O)NC5=O)C6=O)C4)CC3)sc2cc1NC(=O)c1cccc(C#N)n1 (some centres unmarked) [I-442]
10 to 50 nM	C=C/C(NCCCN1CCN(C[C@H]2CC[C@H](c3nc4cc(C(C)(C)O)c(NC(=O)c5cccc(C)n5)cc4s3)CC2)C[C@@H]1C)=C1/C(=O)N(C2CCC(=O)NC2=O)C(=O)/C1=C/C (some centres unmarked) [I-443]
10 to 50 nM	Cc1cccc(C(=O)Nc2cc3sc([C@H]4CC[C@H](CN(C)CCCCNc5cccc6c5C(=O)N(C5CCC(=O)NC5=O)C6=O)CC4)nc3cc2C(C)(C)O)n1 (some centres unmarked) [I-444]
< 10 nM	CN(CCCCNc1cccc2c1C(=O)N(C1CCC(=O)NC1=O)C2=O)C[C@H]1CC[C@H](c2nc3cc(C(C)(C)O)c(NC(=O)c4cccc(C#N)n4)cc3s2)CC1 (some centres unmarked) [I-445]
10 to 50 nM	COc1cc2nc([C@H]3CC[C@H](CN(C)CCCCNc4cccc5c4C(=O)N(C4CCC(=O)NC4=O)C5=O)CC3)sc2cc1NC(=O)c1cccc(C(F)(F)F)n1 (some centres unmarked) [I-446]
< 10 nM	CN(CCCCNc1cccc2c1C(=O)N(C1CCC(=O)NC1=O)C2=O)C[C@H]1CC[C@H](c2nc3cc(C(C)(C)O)c(NC(=O)c4cccc(C(F)(F)F)n4)cc3s2)CC1 (some centres unmarked) [I-447]
> 200 nM	CC(C)(O)c1cc2nc([C@H]3CC[C@H](C(=O)N4CC5(CC(CCNc6cccc7c6C(=O)N(C6CCC(=O)NC6=O)C7=O)C5)C4)CC3)sc2cc1NC(=O)c1cncc(C#N)c1 (some centres unmarked) [I-448]
> 200 nM	COc1cncc(C(=O)Nc2cc3sc([C@H]4CC[C@H](CN(C)CCCCNc5cccc6c5C(=O)N(C5CCC(=O)NC5=O)C6=O)CC4)nc3cc2OC)c1 (some centres unmarked) [I-449]
> 200 nM	COc1cncc(C(=O)Nc2cc3sc([C@H]4CC[C@H](CN(C)CCCNc5cccc6c5C(=O)N(C5CCC(=O)NC5=O)C6=O)CC4)nc3cc2OC)c1 (some centres unmarked) [I-450]
